These results are taken from patent US10888549B2, “Pharmaceutical agents targeting cancer stem cells” (THE JOHNS HOPKINS UNIVERSITY, priority 2016, dated 2021).

Molecules are shown by their SMILES.

One experiment relates to EGFR-MAPK signaling. As to the kind of experiment: Western blotting in xenograft tumors that acquired resistance to erlotinib. The class given is in vivo, mice. The note with it: xenograft tumors with acquired resistance to EGFR inhibitor. On the procedure: (§1) Whole cell lysates were extracted using RIPA buffer (Thermo Scientific) supplemented with 10 μL/mL Halt™ Protease Inhibitor Cocktail Kit (Life Technologies) and 30 μL/mL Halt™ Phosphatase Inhibitor Cocktail Kit (Life Technologies). […] Secondary horseradish peroxidase (HRP)-conjugated antibodies were obtained from Cell Signaling Technology, and chemiluminescent detection of HRP-labeled antibodies was performed using Amersham ECL Prime Western Blotting Detection Reagent (GE Healthcare, Piscataway, USA). As loading control, β-actin was used.
For celecoxib and/or VP treatment, celecoxib (5 mg/kg) was administered via intraperitoneal (i.p.) injection once a day (17), and VP (50 mg/kg) was administered via i.p. every other day (18). […] For GEM and CDDP (GC) treatment (i.p.), CDDP (6 mg/kg) was only applied after the first GEM (60 mg/kg) treatment on day 2, followed by three consecutive treatments of GEM on day 5, 8 and 11 (17). The next cycle was started on day 18, and the treatment was continued until tumor reached 2 cm in diameter. For erlotinib treatment, the mice were treated once a day, 6 days per week, by oral gavage with erlotinib (100 mg/kg) or control (PBS containing 0.5% methyl cellulose (Sigma-Aldrich) and 0.1% TWEEN 80) (20). Tumor size was measured at least every three days. […]
In general terms: Immunoblotting shows a protein as a band on a membrane.

In the next experiment the test system is YAP1. As to the kind of experiment: YAP1 expression by western blotting. The class given is cell-based, human. On the procedure: (§2) Whole cell lysates were extracted using RIPA buffer (Thermo Scientific) supplemented with 10 μL/mL Halt™ Protease Inhibitor Cocktail Kit (Life Technologies) and 30 μL/mL Halt™ Phosphatase Inhibitor Cocktail Kit (Life Technologies). The protein concentrations were determined using a Pierce™ BCA Protein Assay Kit (Life Technologies), and the protein were separated on NuPAGE® 4-12% Bis-Tris Gel (Life Technologies) according to the manufacturer's protocol. COX2 (D5H5), NANOG (D73G4), OCT4 (D7O5Z), CD133 (A3G6K), Snail (C15D3), ZEB1 (D80D3), Vimentin (D21H3), CDH2 (D4R1H), CDH1 (24E10), p-EGFR (D7A5), EGFR (D38B1), p-AKT (D9E), AKT (cat #, 9272), p-ERK (D13.14.4E), ERK (137F5), p-YAP1 (D9W2I), p-Src (cat #, 2101), Src (36D10), DNMT1 (D63A6), DNMT3A (D23G1), and DNMT3B (D7O7O) antibodies were obtained from Cell Signaling Technology (Danvers, Mass., USA), except for SOX2 (EPR3131; Abcam, Cambridge, USA), YAP1 (ab52771; Abcam), CD24 (cat #, AF5247-SP; R&D Systems, Minneapolis USA) and β-actin (A2228; Sigma-Aldrich). Secondary horseradish peroxidase (HRP)-conjugated antibodies were obtained from Cell Signaling Technology, and chemiluminescent detection of HRP-labeled antibodies was performed using Amersham ECL Prime Western Blotting Detection Reagent (GE Healthcare, Piscataway, USA). As loading control, β-actin was used.

The next experiment relates to SOX2. Briefly: SOX2 expression by western blotting / flow cytometry. The class given is cell-based, human. The note with it: basal-type cells. On the procedure:
as §2
For extracellular staining, cells (1×10^6/100 μL stain buffer) were incubated with PE-Vio770-conjugated anti-human CD133 (293C3; Miltenyi Biotec, Auburn, USA) or PE-conjugated anti-human CD24 antibody (cat #, 560991; BD Biosciences) for 30 min at 4° C. in dark. PE-Vio770-conjugated Isotype (cat #, 130-098-563; Miltenyi Biotec) and PE-conjugated IgG2a, κ Isotype (cat #, 555574; BD Biosciences) were used as control for CD133 and CD24 staining, respectively. Staining for intracellular SOX2 was carried out using the BD Cytofix/Cytoperm Fixation/Permeabilization Kit (BD Biosciences) according to manufacturer's protocol. The cells were incubated with Alexa Fluor 647-conjugated anti-SOX2 antibody (cat #, 560302; BD Biosciences) for 40 min at 4° C. in dark. Alexa Fluor 647-conjugated anti-IgG2a, κ Isotype (cat #, 558053; BD Biosciences) was used as control. Data were acquired on a BD FACSCalibur flow cytometer (BD Biosciences) using BD CellQuest Pro software (BD Biosciences) and analyzed with FlowJo software v10.1 (Tree Star, Ashland, USA).

The subject of the next experiment is COX2. As to the kind of experiment: COX2 expression by western blotting. The class given is cell-based, human. On the procedure:
as §1

The next experiment deals with urothelial CSCs. Briefly: Sphere formation assay (CSC properties). The class given is cell-based, human. The note with it: basal-type cells; 1 μM erlotinib for 72 hours. On the procedure: Sphere formation was induced by culturing cells (2×10^4/well) in DMEM/Ham's F12 50/50 Mix (Mediatech) supplemented with B-27 (Life Technologies), 20 ng/mL FGF-basic (Peprotech), 20 ng/mL EGF (Peprotech). Cell culture was performed in ultra-low attachment 6 well plates (Corning, Lowell, USA) for 10 days. The medium was replaced every other day. Sphere formation was evaluated using the inverted phase-contrast microscope, and single sphere with a diameter larger than 100 μm was counted using NIS-Elements Microscope Imaging Software. To redifferentiate spheres, spheres were plated in standard growth medium with 10% FBS in dishes supporting cell attachment, and incubated for 7 days. For self-renewal assay, primary spheres were collected by gentle centrifugation (5 min at 400×g), dissociated with Stempro Accutase Cell Dissociation Reagent (Life Technologies), and mechanically disrupted with a pipette. The cell suspension was sieved through 40 μm cell strainer cap filter to achieve a single-cell suspension, and then equal numbers of alive cells were plated in ultralow attachment plates to generate the second spheres. Again, spheres were counted on day 14 and digested to generate the third Spheres. All the experiments were performed in triplicate and repeated at least three times.

The subject of experiment [1] is AKT and extracellular signal-related kinase (ERK). As to the kind of experiment: Western blotting of AKT and ERK activation. The class given is cell-based, human. The note with it: basal-type cells; 1 μM erlotinib. On the procedure:
as §2

Turning to `C#Cc1cccc(Nc2ncnc3cc(OCCOC)c(OCCOC)cc23)c1` [erlotinib, Erlotinib], in the experiment with EGFR-MAPK signaling, the EGFR-MAPK signaling entry is “remained suppressed”. The YAP1 expression entry in the experiment with YAP1 (basal-type cells) is reported as “continuously decreased”; in the experiment with YAP1 (non-basal-type cells), “did not affect”. Moreover, the SOX2 expression result with SOX2 is “decreased at 1 hour after treatment with erlotinib and then gradually increased”. For the same molecule, the COX2 expression result was “increased” with COX2 (basal-type cells) and “did not affect” in the experiment on COX2 (non-basal-type cells). In addition, the number of spheres result in the experiment on urothelial CSCs is reported as “enriched number of spheres”. In addition, the “activation of AKT and extracellular signal-related kinase (ERK)” value in experiment [1] was “suppressed activation”.
